Values joined by “and” are separate entries in the source; they are usually repeats but may differ in a detail not shown here. Identical values can stand only once.
How the values were obtained:
[1] = tested on: THIK-1-Y273A (coexpressed with hM1R); assay: Whole-cell currents in transiently transfected HEK-293 cells, GqPCR (hM1-R) mediated activation by Oxo-M, THIK-1-Y273A; assay type: cell-based, human; conditions: for Maximal currents with Oxo-M: THIK-1 Y273A + M1R
Method: Two-electrode voltage–clamp (TEVC) studies were performed in Xenopus oocytes. All animal use conformed to the Guide for the Care and Use of Laboratory Animals (NIH Publication 85–23), and all experiments using Xenopus toads were approved by the local ethics panels. Oocytes were stored at 17 °C in ND96 recording solution composed of (in mM): 96 NaCl, 2 KCl, 1.8 CaCl2, 1 MgCl2, 5 HEPES (pH 7.5 adjusted with NaOH and HCl), supplemented with Na-pyruvate (275 mg L^–1), theophylline (90 mg L^–1) and gentamicin (50 mg L^–1). Oocytes were injected with 1 ng mRNA for WT or mutant channels, and were incubated for 24–48 h at 17 °C. Two-electrode voltage clamp recordings were then performed as previously described[42],[43]. For macroscopic patch–clamp measurements, oocytes were obtained as described above incubated at 17 °C in a solution containing (mM): 54 NaCl, 30 KCl, 2.4 NaHCO3, 0.82 MgSO4 ×7 H2O, 0.41 CaCl2, 0.33 Ca(NO3)2 ×4 H2O and 7.5 TRIS (pH 7.4 adjusted with NaOH and HCl) for 1–4 days before use. Excised patch recordings in inside-out configuration conditions were performed at room temperature. Patch pipettes were made from thick-walled borosilicate glass GB 200TF-8P (Science Products), had resistances of 0.2–0.5 MΩ (tip diameter, 10–25 µm) and filled with a pipette solution (in mM): 120 KCl, 10 HEPES and 3.6 CaCl2 (pH 7.4 adjusted with KOH and HCl). Intracellular bath solutions and compounds were applied to the cytoplasmic side of excised patches for the various K^+ channels through a gravity flow multi-barrel pipette system. […] Currents were recorded with an EPC10 amplifier (HEKA Electronics) and sampled at 10 kHz or higher, with filtering set to 3 kHz (–3 dB) or higher, as appropriate for sampling rate. For measurements of GPCR activation, whole-cell currents were recorded for THIK-1 in transiently transfected HEK-293 cells. […] Single-channel currents were recorded with an Axopatch 200B amplifier through a Digidata 1440A digitizer (Molecular Devices). Data were filtered at 2 kHz and recorded at a 200-kHz sampling rate with the program Clampex (Molecular Devices). […]

WT THIK-1 (without M1R) = target: T1, WT THIK-1 (without M1R) (Homo sapiens, UniProt Q9HB14); assay: Whole-cell currents in HEK-293 cells with Oxo-M, WT THIK-1 without M1R; assay type: cell-based; conditions: THIK-1 WT (no M1R)
T1 construct: expressed in transfected cells; host or cells: HEK-293
T1 sequence (Q9HB14 whole entry): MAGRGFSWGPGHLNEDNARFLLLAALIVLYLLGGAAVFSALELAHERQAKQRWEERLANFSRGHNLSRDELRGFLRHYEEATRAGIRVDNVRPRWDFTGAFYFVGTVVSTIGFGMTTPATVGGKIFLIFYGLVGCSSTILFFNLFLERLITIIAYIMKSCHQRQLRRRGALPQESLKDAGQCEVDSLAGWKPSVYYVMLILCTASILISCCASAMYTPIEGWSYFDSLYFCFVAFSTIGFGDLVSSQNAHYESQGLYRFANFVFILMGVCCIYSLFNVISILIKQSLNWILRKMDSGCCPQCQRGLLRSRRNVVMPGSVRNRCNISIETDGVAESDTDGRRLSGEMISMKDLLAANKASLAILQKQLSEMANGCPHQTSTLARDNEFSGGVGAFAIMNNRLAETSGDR
Source text: Supplement 41594_2025_1497_MOESM2_ESM.xlsx, sheet "ExtData_Fig_S2e" | column: Maximal currents with Oxo-M (%); WT

[2] = tested on: WT THIK-1 (coexpressed with hM1R); assay: Whole-cell currents in transiently transfected HEK-293 cells, GqPCR (hM1-R) mediated activation by Oxo-M, WT THIK-1; assay type: cell-based, human; conditions: for activation by Oxo-M: 10 μM Oxo-M; for Maximal currents with Oxo-M: THIK-1 WT + M1R
Method: Two-electrode voltage–clamp (TEVC) studies were performed in Xenopus oocytes. All animal use conformed to the Guide for the Care and Use of Laboratory Animals (NIH Publication 85–23), and all experiments using Xenopus toads were approved by the local ethics panels. Oocytes were stored at 17 °C in ND96 recording solution composed of (in mM): 96 NaCl, 2 KCl, 1.8 CaCl2, 1 MgCl2, 5 HEPES (pH 7.5 adjusted with NaOH and HCl), supplemented with Na-pyruvate (275 mg L^–1), theophylline (90 mg L^–1) and gentamicin (50 mg L^–1). Oocytes were injected with 1 ng mRNA for WT or mutant channels, and were incubated for 24–48 h at 17 °C. Two-electrode voltage clamp recordings were then performed as previously described[42],[43]. For macroscopic patch–clamp measurements, oocytes were obtained as described above incubated at 17 °C in a solution containing (mM): 54 NaCl, 30 KCl, 2.4 NaHCO3, 0.82 MgSO4 ×7 H2O, 0.41 CaCl2, 0.33 Ca(NO3)2 ×4 H2O and 7.5 TRIS (pH 7.4 adjusted with NaOH and HCl) for 1–4 days before use. Excised patch recordings in inside-out configuration conditions were performed at room temperature. Patch pipettes were made from thick-walled borosilicate glass GB 200TF-8P (Science Products), had resistances of 0.2–0.5 MΩ (tip diameter, 10–25 µm) and filled with a pipette solution (in mM): 120 KCl, 10 HEPES and 3.6 CaCl2 (pH 7.4 adjusted with KOH and HCl). Intracellular bath solutions and compounds were applied to the cytoplasmic side of excised patches for the various K^+ channels through a gravity flow multi-barrel pipette system. The intracellular solution had the following composition (in mM): 120 KCl, 10 HEPES, 2 EGTA and 1 pyrophosphate (pH adjusted with KOH and HCl). Currents were recorded with an EPC10 amplifier (HEKA Electronics) and sampled at 10 kHz or higher, with filtering set to 3 kHz (–3 dB) or higher, as appropriate for sampling rate. For measurements of GPCR activation, whole-cell currents were recorded for THIK-1 in transiently transfected HEK-293 cells. Cells were stimulated by a ramp protocol between −100 and +60 mV (holding potential, −80 mV). The pipette solution was composed of (in mM): 140 KCl, 2 MgCl2, 1 CaCl2, 2.5 EGTA and 10 HEPES (pH 7.3 adjusted with KOH and HCl). The extracellular bath solution had the following composition (in mM): 135 NaCl, 5 KCl, 2 MgCl2, 2 CaCl2, 10 glucose and 10 HEPES pH (pH 7.3 adjusted with NaOH and HCl). Oxotremorine M (Oxo-M) was added to extracellular bath solution to obtain the final concentration. Single-channel currents were recorded with an Axopatch 200B amplifier through a Digidata 1440A digitizer (Molecular Devices). Data were filtered at 2 kHz and recorded at a 200-kHz sampling rate with the program Clampex (Molecular Devices). […]

With C[N+](C)(C)CC#CCN1CCCC1=O [Oxo-M, Oxotremorine M] the “activation by Oxo-M” value ([1]; 10 μM Oxo-M, THIK-1-Y273A) was “no activation”, the “Maximal currents with Oxo-M” value ([1]; individual recordings) was 93.100% and 97.920% and 94.800% and 93.870% and 99.320% and 100.290% and the “Maximal currents with Oxo-M” value ([1]; mean) was 96.55%. The “Maximal currents with Oxo-M” value (WT THIK-1 (without M1R); individual recordings) was 87.670% and 72.140% and 84.570% and 69.740% and 73.820% and 88.800% and 69.120% and 93.710% and 101.590% and 90.590% and 96.720% and 154.730% and 88.450%, the “Maximal currents with Oxo-M” value (WT THIK-1 (without M1R); mean) was 90.13% and the “activation by Oxo-M” value ([2]; WT THIK-1 with hM1-R) was ~ 50%. The “activation by Oxo-M” value ([2]; in the absence of hM1-R) was “no activation”, the “Maximal currents with Oxo-M” value ([2]; individual recordings) was 172.080% and 208.230% and 131.370% and 127.470% and 125.270% and 149.760% and 113.980% and 121.900% and 146.330% and 151.430% and 123.170% and 131.250% and 181.580% and 173.780% and 155.620% and 228.290% and 290.820% and 139.180% and 66.330% and 107.180% and 88.700% and the “Maximal currents with Oxo-M” value ([2]; mean) was 149.22%.
